Laboratory results taken from US4446148A, “Benzodioxanyl imidazoline compounds, compositions and use” (priority 1982, dated 1984).
“Also recorded” adds a separate entry of the source. Structures can show the parent of a compound that is named as a salt. Where two headings read alike, the source gives them in different places.

How the values were obtained:
[1] = target: T1, postsynaptic α1-adrenoreceptor (Rattus norvegicus, UniProt P43140); assay: Postsynaptic α1-adrenoreceptor antagonism versus noradrenaline contractions of the rat anococcygeus muscle (isolated tissue)
T1 construct: the rat anococcygeus muscle is used to establish postsynaptic α1 -adrenoreceptor activity; from tissue; host or cells: rat anococcygeus muscle
T1 sequence (P43140 1-466): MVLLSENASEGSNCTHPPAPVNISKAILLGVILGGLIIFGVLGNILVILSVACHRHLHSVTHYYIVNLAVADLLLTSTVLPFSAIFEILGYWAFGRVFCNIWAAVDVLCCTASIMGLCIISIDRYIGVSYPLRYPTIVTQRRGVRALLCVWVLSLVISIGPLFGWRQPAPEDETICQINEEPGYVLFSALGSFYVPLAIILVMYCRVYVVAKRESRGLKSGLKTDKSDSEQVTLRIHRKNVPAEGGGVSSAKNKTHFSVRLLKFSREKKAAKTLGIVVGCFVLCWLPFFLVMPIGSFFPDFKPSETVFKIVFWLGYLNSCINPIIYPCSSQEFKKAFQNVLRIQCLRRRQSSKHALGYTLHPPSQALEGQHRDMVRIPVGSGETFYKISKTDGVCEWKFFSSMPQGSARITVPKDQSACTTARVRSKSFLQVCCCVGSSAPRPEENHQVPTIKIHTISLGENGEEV
Text: (§1) This in vitro model is particularly useful as an initial screen for studying presynaptic activity in isolation since the physiological nature of the vas deferens tissue is such that the postsynaptic receptors located therein are particularly inaccessible to exogenous agents. In consequence an alternative tissue, the rat anococcygeus muscle is used to establish postsynaptic α1 -adrenoreceptor activity. Antagonism of noradrenaline contractions is used to determine pA2 values at postsynaptic α1 -adrenoreceptors. The ratio of presynaptic α2 -adrenoreceptor antagonism (versus clonidine on the rat vas deferens) to postsynaptic α1 -adrenoreceptor antagonism (versus noradrenaline contractions on the rat anococcygeus muscle) is used to assess adrenoreceptor selectivity.
(§2) The results are the mean of a minimum of 5 experiments.

α2-binding sites [2] = target: T2, α2-binding sites (Rattus norvegicus, UniProt P22909); assay: Saturation binding of [^3 H]-RX 781094 in rat cerebral cortex, Scatchard analysis; conditions: 0.1-35 nM radioligand, n=4
T2 construct: A crude synaptosomal P2 fraction was prepared; from tissue; host or cells: cerebral cortex including hippocampus, male Sprague-Dawley rats, crude synaptosomal P2 fraction
T2 sequence (P22909 1-465): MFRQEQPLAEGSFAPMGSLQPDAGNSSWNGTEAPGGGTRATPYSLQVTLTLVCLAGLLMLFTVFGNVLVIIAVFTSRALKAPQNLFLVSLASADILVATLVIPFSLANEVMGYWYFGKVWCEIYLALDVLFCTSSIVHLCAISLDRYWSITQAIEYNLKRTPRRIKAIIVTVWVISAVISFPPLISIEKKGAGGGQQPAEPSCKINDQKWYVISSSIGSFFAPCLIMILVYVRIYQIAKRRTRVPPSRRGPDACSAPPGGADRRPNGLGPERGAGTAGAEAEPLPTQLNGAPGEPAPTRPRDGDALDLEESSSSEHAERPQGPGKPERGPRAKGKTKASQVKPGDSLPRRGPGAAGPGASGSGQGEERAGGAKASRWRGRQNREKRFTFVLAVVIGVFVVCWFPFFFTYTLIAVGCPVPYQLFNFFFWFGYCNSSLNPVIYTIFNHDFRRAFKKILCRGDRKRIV
Procedure: (§3) Male Sprague-Dawley rats, 250-300 g, were killed by decapitation, the brains quickly removed and the cerebral cortex dissected free from striatal tissue but including the hippocampus. Tissue was homogenized in ice-cold buffered sucrose (20 vols w/v 0.3 M sucrose in Tris/HCl buffer, 0.05 M, pH 7.4) using a Potter-type glass-teflon homogenizer. A crude synaptosomal P2 fraction was prepared and the washed P2 -pellet was resuspended in a physiological salt solution to give a final protein concentration of about 1 mg/ml.

[3] = test system: presynaptic α2-adrenoreceptors; assay: Presynaptic α2-adrenoreceptor antagonism in the pithed rat: reversal of clonidine block on vas deferens, intravenous; format: in vivo; conditions: for i.v. dose of antagonist causing 50% reversal of clonidine block on vas deferens: cumulative i.v. dosing, clonidine 100 μg/kg i.v., mean of minimum 4 rats
Procedure: This test model extends the evaluation of presynaptic α2 -adrenoreceptor antagonism versus clonidine on the rat vas deferens to the in vivo situation. Blood pressure and stimulation induced contractions of the vas deferens were monitored in pithed rats using the method of Brown, J., Doxey, J. C., Handley, S. and Virdee, N., Recent Advances in the Pharmacology of Adrenoceptors, Elsevier North Holland, 1978. Clonidine (100 μg/kg. i.v.) causes a prolonged pressor response and a prolonged inhibition of vas deferens contractions. The test drugs were injected intravenously in a cumulative dosing schedule and their abilities to reverse the inhibition of hypogastric nerve stimulation reflected their presynaptic antagonism.
The results are the mean of a minimum of 4 rats.

α2-binding sites [4] = target: T2, α2-binding sites; assay: Radioligand competition binding at α2-binding sites labelled by [^3 H]-RX781094 in rat cerebral cortex; conditions: for Ki: α2 Ki vs [^3 H]-RX 781094, rat cerebral cortex, 1 nM radioligand, 15 min, 25° C.; for activity of the enantiomers (in words): from Table 4 / testing results
Text: The pharmacological activity of the racemic compound (RS) of Example 1 (in formula I R^1 =methyl) has been compared with the activities of the R and S enantiomers.
as §3, with “mg/ml. The physiological salt solution had the following composition ([…]): 118 NaCl, 4.8 KCl, 1.3 CaCl2, 1.2 […], 1.2 MgSO4, 25 NaHCO3 and was equilibrated with 95% O2 and 5% CO2.” for “mg/ml.”
Samples were incubated for 15 min at 25° C. and then rapidly filtered under vacuum through Whatman GFB filters and washed. Filters were transferred to scintillation vials and NE 260 miscellar scintillation fluid (3.5 ml) was added prior to scintillation counting (at 40% efficiency). Competition binding curves including up to eight concentrations of test antagonist were constructed and IC50 values determined. Hill plots made from each set of data were linear with Hill coefficients (nh) […] to 1.0 and inhibitor constants (Ki values) were derived from IC50 values.

[5] = target: T3, presynaptic α2-adrenoreceptor (Rattus norvegicus, UniProt P22909); assay: Presynaptic α2-adrenoreceptor antagonism versus clonidine on the stimulated rat vas deferens (isolated tissue); conditions: for Pre/postsynaptic ratio: presynaptic α2 (vs clonidine, vas deferens) to postsynaptic α1 (vs noradrenaline, anococcygeus) antagonism
T3 construct: on the rat vas deferens stimulated at a frequency of 0.1 Hz; from tissue; host or cells: rat vas deferens
T3 sequence (P22909 1-465): T2 sequence (P22909 1-465)
Text: as §1, §2

c1ccc2c(c1)OCC(C1=NCCN1)O2 (stereo not shown) [A, 2-[2-(1,4-benzodioxanyl)]-2-imidazoline, reference compound]
Kb [1]: 631 nM

c1ccc2c(c1)OCC(C1=NCCN1)O2 (stereo not shown) [[^3 H]-RX 781094, 2-[2-(1,4-benzodioxanyl)]-2-imidazoline]
Bmax (α2-binding sites [2]): 147±36 f moles/mg protein

CN1CCN2c3ccccc3Cc3ccccc3C2C1 (stereo not shown) [Mianserin HCl]
i.v. dose of antagonist causing 50% reversal of clonidine block on vas deferens ([3]; pithed rat): > 4.4 mg/kg

COC1(C2=NCCN2)COc2ccccc2O1 (racemic) [Example 1, 2-[2-(2-Methoxy-1,4-benzodioxanyl)]-2-imidazoline]
Ki (α2-binding sites [4]): 0.8 ± 0.05 nM | presynaptic α2 antagonist activity relative to the unsubstituted compound (A) ([5]; Table 2, relative to compound A): ~10 times | presynaptic α2 antagonist activity relative to the 2-methyl compound (B) ([5]; Table 2, relative to compound B): 10 times | presynaptic α2-adrenoreceptor antagonist potency and selectivity (in words) ([5]; compounds of Table 2): most potent presynaptic α2 -adrenoreceptor antagonist; also recorded: extremely selective for presynaptic sites | Pre/postsynaptic ratio [5]: 776 | Kb ([5]; rat vas deferens, 0.1 Hz stimulation, vs clonidine, mean of minimum 5 experiments, read-out: Presynaptic antagonism pA2 vs Clonidine (vas deferens) (converted)): 0.0794 nM | presynaptic α2 antagonist potency in the pithed rat (in words) ([3]; compounds of Table 3): clearly the most potent presynaptic α2 -adrenoreceptor antagonist | i.v. dose of antagonist causing 50% reversal of clonidine block on vas deferens ([3]; pithed rat): 0.002 mg/kg | Kb ([1]; rat anococcygeus muscle, vs noradrenaline, mean of minimum 5 experiments, read-out: Postsynaptic antagonism pA2 vs Noradrenaline (anococcygeus) (converted)): 63.1 nM

COC1(C2=NCCN2)COc2ccccc2O1 (single isomer, unassigned) [S, 2-[2-(2-methoxy-1,4-benzodioxanyl)]-2-imidazoline]
potency of the S isomer relative to the racemate (in words) (α2-binding sites [4]; from Table 4): twice as potent as the racemate | activity of the enantiomers (in words) (α2-binding sites [4]; listed as (+) enantiomer): all the activity resided in the (+) enantiomer | activity of the enantiomers (in words) (α2-binding sites [4]; listed as S isomer): the active form | Ki (α2-binding sites [4]): 0.36 ± 0.07 nM

COC1(C2=NCCN2)COc2ccccc2O1 (single isomer, unassigned; (-)) [R, (-)-2-[2-(2-methoxy-1,4-benzodioxanyl)]-2-imidazoline]
activity of the enantiomers (in words) (α2-binding sites [4]; listed as R isomer): almost inactive | Ki (α2-binding sites [4]): 256 ± 59 nM

Cc1ccc(N(CC2=NCCN2)c2cccc(O)c2)cc1 [Phentolamine mesylate]
i.v. dose of antagonist causing 50% reversal of clonidine block on vas deferens ([3]; pithed rat): 0.12 mg/kg

CN1CCN2c3ccccc3Cc3ccccc3C2C1 (stereo not shown) [Mianserin]
maximum reversal of the inhibitory effects of clonidine on hypogastric nerve stimulation ([3]; pithed rat, cumulative intravenous dose of 4.4 mg/kg): 36%

COC(=O)[C@@H]1[C@H]2C[C@H]3c4[nH]c5ccccc5c4CCN3C[C@@H]2CC[C@@H]1O [Yohimbine HCl]
i.v. dose of antagonist causing 50% reversal of clonidine block on vas deferens ([3]; pithed rat): 0.86 mg/kg

CC1(C2=NCCN2)COc2ccccc2O1 (stereo not shown) [B, 2-[2-(2-methyl-1,4-benzodioxanyl)]-2-imidazoline, reference compound]
Pre/postsynaptic ratio [5]: 871
